Laboratory results from patent US4588713A, “Selective biologically active 7-oxo-prostacyclin derivatives and pharmaceutical compositions containing same” (Chinoin Gyogyszer Vegyeszeti Termekek Gyara Rt., priority 1984, dated 1986).
Values after ≈ are worked out from the molar mass of the structure shown. “Also recorded” adds a separate entry of the source. Where a name gives a salt, the structure may show the parent alone.

Experiments:
[1] = test system: human plasma enriched with thrombocytes; experiment: Anti-aggregation activity in vitro (Born), ADP-induced aggregation; format: cell-based; conditions: for relative efficiency H^1 (anti-aggregation): relative to PGI2-Na = 1
Protocol: (§1) The selective biological activity of these compounds may be studied by investigating the antiaggregation and hypotensive activity simultaneously. Anti-aggregation activity was measured in vitro according to Born Nature, 214, 927 (1962) on human plasma enriched with thrombocytes in an aggregation induced by […] ADP, whereas the haemodynamic activity was obtained from the blood pressure reducing activity of the compound administered in an i.v. bolus injection to an anaesthetized cat with an open-chest.

[2] = test system: antiaggregation and hypotensive activity; experiment: Selectivity: antiaggregation versus hypotensive activity; conditions: for H^1 /H^2: relative anti-aggregation efficiency / relative hypotensive efficiency
Protocol: as §1

[3] = test system: anaesthetized cat with an open-chest; experiment: Hypotensive (haemodynamic, blood pressure reducing) activity, i.v. bolus, anaesthetized open-chest cat; format: in vivo; conditions: for relative efficiency H^2 (hypotensive): relative to PGI2-Na = 1; for ED50: Felis catus, iv
Protocol: as §1

[4] = background; cited from earlier work
[5] = in vitro, human plasma enriched with thrombocytes, 2 μm ADP
[6] = i.v. bolus, anaesthetized open-chest cat

| anti-aggregation IC50 [1, 5] | IC50 [1, 5] | Compound | relative efficiency H^1 (anti-aggregation) [1] | selectivity compared with prostacycline and 7-oxo-PGI2 sodium salt (in words) ([2]; from H^1/H^2, listed as cyclopentyl analog) | H^1 /H^2 [2] | hypotensive activity ED50 [3, 6] | relative efficiency H^2 (hypotensive) [3] | ED50 [3, 6] | chemical and biological stability (in words) [4] |
| --- | --- | --- | --- | --- | --- | --- | --- | --- | --- |
| 1.6 ng/mL | – | O=C([O-])CCCC=C1OC2CC(O)C(C=CC(O)C3CCCC3)C2C1=O.[Na+] (stereo not shown) [Sodium salt of 7-oxo-16,17,18,19,20-pentanor-15-cyclopentyl-PGI2] | 0.625 | about hundred times more selective than prostacycline; also recorded: considerably more selective than the sodium salt of 7-oxo-PGI2 | 83.1 | 21.2 µg/kg | 0.0075 | – | – |
| – | 15 ng/mL | CCCCC[C@H](O)/C=C/[C@@H]1[C@H]2C(=O)/C(=C/CCCC(=O)O)O[C@H]2C[C@H]1O [7-oxo-PGI2 --Na, sodium salt of 7-oxo-PGI2] | 0.086 | – | 2.75 | – | 0.024 | 6.5 µg/kg | – |
| – | – | CCCCC[C@H](O)/C=C/[C@@H]1[C@H]2C/C(=C/CCCC(=O)O)O[C@H]2C[C@H]1O [PGI2, Prostacyclin] | – | – | – | – | – | – | chemical and biological instability |
| – | 1 ng/mL (≈ 2.84 nM) | CCCCC[C@H](O)/C=C/[C@@H]1[C@H]2C/C(=C/CCCC(=O)O)O[C@H]2C[C@H]1O [PGI2 --Na] | – | – | 1 | – | 1 | 0.16 µg/kg | – |
